Measured values: US20100040615A1, “Digalactolipidic Antigen Exposed on the Surface of Apicomplex Parasites, and Diagnostic and Therapeutic Use Thereof” (COMMISSARIAT A L'ENERGIE ATOMIQUE, priority 2007, published 2010)

Assay: Immunization of animals with purified galactolipid, sera tested for antibodies
Format: in vivo, rabbits and rat
Conditions: five immunizations, Freund's adjuvant, sera taken at D57
Description: Two rabbits and one rat were immunized with purified DGDG ([…]), according to the following protocol: • a first immunization (D0) by multisite subcutaneous injection (total volume of 1 ml) of 0.5 mg of antigen in 0.5 ml of a solution of NaCl (0.9%), emulsified in 0.5 ml of complete Freund's adjuvant, • a second immunization (D10) by subcutaneous (1 ml) and intramuscular (0.5 ml) injection of 0.5 mg of antigen in 0.75 ml of a solution of NaCl (0.9%), emulsified in 0.75 ml of incomplete Freund's adjuvant, • a third immunization (D21) by subcutaneous (1 ml) and intramuscular (0.5 ml) injection of 0.5 mg of antigen in 0.75 ml of a solution of NaCl (0.9%), emulsified in 0.75 ml of incomplete Freund's adjuvant, • a fourth immunization (D36) by intramuscular (0.5 ml) and intravenous (0.5 ml) injection: 0.17 mg of antigen in 0.25 ml of a solution of NaCl (0.9%), emulsified in 0.25 ml of incomplete Freund's adjuvant, injected intramuscularly, and 0.33 mg of antigen in 0.5 ml of a solution of NaCl (0.9%), injected intravenously, and • a fifth immunization (D50) by intramuscular (0.5 ml) and intravenous (0.5 ml) injection: 0.17 mg of antigen in 0.25 ml of a solution of NaCl (0.9%), emulsified in 0.25 ml of incomplete Freund's adjuvant, injected intramuscularly, and 0.33 mg of antigen in 0.5 ml of a solution of NaCl (0.9%), injected intravenously. […]

Substance | induction of active serum (antibodies against the immunizing lipid)
monogalactosyldiacylglycerol [MGDG] | did not make it possible to obtain active serum
1,2-diacyl-(α-D-galactopyranosyl-(1→6)-β-D-galactopyranosyl-(1′→3))-sn-glycerol [DGDG] | made it possible to obtain active sera containing antibodies that recognize DGDG
